Experimental data reported in patent US9169205B2, “Pyrrolidine derivatives, pharmaceutical compositions and uses thereof” (Boehringer Ingelheim International GmbH, priority 2012, dated 2015).

Target: human ACC2 (Homo sapiens (Human), UniProt O00763)
Test: ACC2 assay (spectrophotometric 384 well assay, NADH-linked kinetic method)
Assay type: biochemical
Settings: hACC2 construct lacking 128 N-terminal amino acids, 25° C., 340 nm
Procedure, shortened: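 Baculovirus/insect-cell human ACC2, anion-exchange purified; ADP formation coupled to pyruvate kinase/lactate dehydrogenase, NADH loss followed at 340 nm, 25° C, 15 min. Final 200 μM NADH and acetyl-CoA, 500 uM ATP; vehicle and no-acetyl-CoA wells set 100% and 0%.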

Chain of human ACC2 (O00763 129-2458): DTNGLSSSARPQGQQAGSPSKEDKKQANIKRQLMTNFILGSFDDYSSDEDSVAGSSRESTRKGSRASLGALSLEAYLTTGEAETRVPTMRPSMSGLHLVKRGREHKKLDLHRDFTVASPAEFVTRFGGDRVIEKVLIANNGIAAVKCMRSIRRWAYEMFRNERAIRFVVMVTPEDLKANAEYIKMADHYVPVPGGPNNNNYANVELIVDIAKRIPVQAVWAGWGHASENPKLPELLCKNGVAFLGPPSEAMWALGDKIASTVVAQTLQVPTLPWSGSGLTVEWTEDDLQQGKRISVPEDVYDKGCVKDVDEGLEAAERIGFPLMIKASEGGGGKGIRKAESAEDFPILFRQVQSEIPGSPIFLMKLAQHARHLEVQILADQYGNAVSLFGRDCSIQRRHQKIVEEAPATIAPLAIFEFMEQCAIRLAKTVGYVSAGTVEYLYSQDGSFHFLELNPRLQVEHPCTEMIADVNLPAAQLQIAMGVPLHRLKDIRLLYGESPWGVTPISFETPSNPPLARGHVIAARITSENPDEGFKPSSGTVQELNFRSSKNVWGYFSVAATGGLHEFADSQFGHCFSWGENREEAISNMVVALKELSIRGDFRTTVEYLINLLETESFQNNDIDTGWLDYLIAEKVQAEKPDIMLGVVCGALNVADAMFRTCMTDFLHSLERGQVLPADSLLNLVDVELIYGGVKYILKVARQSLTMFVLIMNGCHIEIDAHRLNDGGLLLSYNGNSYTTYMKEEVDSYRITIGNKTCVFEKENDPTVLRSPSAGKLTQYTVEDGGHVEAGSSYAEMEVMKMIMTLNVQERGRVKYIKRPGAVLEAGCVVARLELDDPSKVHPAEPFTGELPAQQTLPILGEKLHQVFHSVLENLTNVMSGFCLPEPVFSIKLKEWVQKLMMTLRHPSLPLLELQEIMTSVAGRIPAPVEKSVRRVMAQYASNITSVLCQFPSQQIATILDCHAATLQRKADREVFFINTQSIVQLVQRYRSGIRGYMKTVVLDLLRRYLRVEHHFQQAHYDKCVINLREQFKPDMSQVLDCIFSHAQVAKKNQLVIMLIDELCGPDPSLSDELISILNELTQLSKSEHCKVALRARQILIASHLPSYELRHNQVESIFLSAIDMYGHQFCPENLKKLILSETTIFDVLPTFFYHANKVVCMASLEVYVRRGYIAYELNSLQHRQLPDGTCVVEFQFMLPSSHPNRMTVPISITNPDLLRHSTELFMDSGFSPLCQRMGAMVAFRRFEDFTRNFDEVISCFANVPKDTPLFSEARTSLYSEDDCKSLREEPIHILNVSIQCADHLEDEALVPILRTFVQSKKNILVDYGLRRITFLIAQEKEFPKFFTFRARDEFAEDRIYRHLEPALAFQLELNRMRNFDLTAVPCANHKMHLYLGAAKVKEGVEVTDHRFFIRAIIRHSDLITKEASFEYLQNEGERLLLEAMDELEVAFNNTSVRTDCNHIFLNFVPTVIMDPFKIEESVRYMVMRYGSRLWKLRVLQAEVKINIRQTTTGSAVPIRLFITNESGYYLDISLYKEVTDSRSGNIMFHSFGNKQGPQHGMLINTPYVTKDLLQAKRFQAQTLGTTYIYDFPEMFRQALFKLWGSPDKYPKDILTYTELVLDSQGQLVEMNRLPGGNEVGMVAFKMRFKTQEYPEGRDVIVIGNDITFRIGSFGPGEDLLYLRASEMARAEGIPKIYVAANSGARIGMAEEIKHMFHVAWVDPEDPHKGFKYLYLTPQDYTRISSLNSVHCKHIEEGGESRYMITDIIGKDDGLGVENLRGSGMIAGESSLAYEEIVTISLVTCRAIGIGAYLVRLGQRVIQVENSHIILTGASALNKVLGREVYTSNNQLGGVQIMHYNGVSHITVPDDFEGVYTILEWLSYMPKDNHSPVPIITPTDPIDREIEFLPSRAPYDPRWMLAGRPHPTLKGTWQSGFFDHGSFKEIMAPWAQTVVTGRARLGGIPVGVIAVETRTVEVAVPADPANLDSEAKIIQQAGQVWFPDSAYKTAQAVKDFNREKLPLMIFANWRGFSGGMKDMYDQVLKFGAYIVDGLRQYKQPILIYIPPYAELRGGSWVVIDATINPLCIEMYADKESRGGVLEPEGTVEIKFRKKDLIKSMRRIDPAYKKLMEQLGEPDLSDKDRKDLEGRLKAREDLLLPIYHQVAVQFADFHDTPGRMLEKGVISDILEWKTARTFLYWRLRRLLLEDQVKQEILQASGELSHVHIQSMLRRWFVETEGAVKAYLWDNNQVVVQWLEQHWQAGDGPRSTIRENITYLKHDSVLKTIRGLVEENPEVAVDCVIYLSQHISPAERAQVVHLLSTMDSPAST

| Compound | IC50 [nM] |
| --- | --- |
| CNC(=O)N[C@@H](C)c1ccc(OC2CCN(c3ccc(OCC4CC4)cc3)C2)cc1 (stereo partly shown) [Example 3.8] | 73 |
| CNC(=O)N[C@@H](C)c1ccc(OC2CCN(c3ccc(OC(C)C)cc3)C2)cc1 (stereo partly shown) [Example 3.9] | 205 |
| CCNC(=O)N[C@@H](C)c1ccc(OC2CCN(c3ccc(OC(C)C)cc3)C2)cc1 (stereo partly shown) [Example 3.10] | 218 |
| CC(C)Oc1ccc(N2CCC(Oc3ccc([C@H](C)NC(=O)N4CCOCC4)cc3)C2)cc1 (stereo partly shown) [Example 3.12] | 1280 |
| Cc1cc(OC2CC2)ccc1N1CCC(Oc2ccc([C@H](C)NC(=O)N3CCOCC3)cc2)C1 (stereo partly shown) [Example 3.13] | 863 |
| COCCCOc1ccc(N2CC[C@@H](Oc3ccc([C@H](C)NC(C)=O)cc3)C2)cc1 [Example 4.1, N—((S)-1-(4-((R)-1-(4-(3-methoxypropoxy)phenyl)pyrrolidin-3-yloxy)phenyl)ethyl)-acetamide] | 460 |
| CCOC(=O)C1(Oc2ccc(N3CCC(Oc4ccc([C@H](C)NC(C)=O)cc4)C3)cc2)CCC1 (stereo partly shown) [Example 4.2] | 309 |
| CCC(C)Oc1ccc(N2CCC(Oc3ccc([C@H](C)NC(C)=O)cc3)C2)cc1 (stereo partly shown) [Example 4.3] | 169 |
| COCCOc1ccc(N2CCC(Oc3ccc([C@H](C)NC(C)=O)cc3)C2)cc1 (stereo partly shown) [Example 4.4] | 560 |
| CC(=O)N[C@@H](C)c1ccc(OC2CCN(c3ccc(OCc4ccccc4)cc3)C2)cc1 (stereo partly shown) [Example 4.5] | 660 |
| CC(=O)N[C@@H](C)c1ccc(OC2CCN(c3ccc(OCC(F)F)cc3)C2)cc1 (stereo partly shown) [Example 4.6] | 360 |
| CC(=O)N[C@@H](C)c1ccc(OC2CCN(c3ccc(OCC(F)(F)C(F)F)cc3)C2)cc1 (stereo partly shown) [Example 4.7] | 630 |
| C[C@H](NC(=O)C(F)(F)F)c1ccc(O[C@@H]2CCN(c3ccc(OCC4CC4)cc3)C2)cc1 [Example 6, N—((S)-1-(4-((R)-1-(4-(Cyclopropylmethoxy)phenyl)pyrrolidin-3-yloxy)phenyl)-ethyl)-2,2,2-trifluoroacetamide] | 39 |
| C[C@H](NC(=O)C1CC[C@@H](N)C1)c1ccc(O[C@@H]2CCN(c3ccc(OCC4CC4)cc3)C2)cc1 (stereo partly shown) [Example 9] | 1750 |
| CCOc1ccc(N2CC[C@@H](Oc3ccc([C@H](C)NC(=O)c4sc(NC(=O)CO)nc4C)cc3)C2)cc1 [Example 10, N—((S)-1-(4-((R)-1-(4-Ethoxyphenyl)pyrrolidin-3-yloxy)phenyl)-ethyl)-2-(2-hydroxyacetamido)-4-methylthiazole-5-carboxamide] | 163 |

More lines, now with the values ahead:

| IC50 [nM] | Compound |
| --- | --- |
| 49 | COC(=O)N[C@@H](C)c1ccc(O[C@@H]2CCN(c3ccc(OCC4CC4)cc3)C2)cc1 [Example 5.1, Methyl-(S)-1-(4-((R)-1-(4-(cyclopropylmethoxy)phenyl)pyrrolidin-3-yloxy)phenyl)-ethylcarbamate] |
| 1780 | CC(=O)N[C@@H](C)c1ccc(OC2CCN(c3ccc(OCC4CC4)cc3)C2)cn1 (stereo partly drawn) [Example 7.1, N—((S)-1-(5-((R)-1-(4-(Cyclopropylmethoxy)phenyl)pyrrolidin-3-ylox)pyridin-2-yl)ethyl)acetamide] |
| 762 | CC(=O)NC(C)c1ccc(OC2CCN(c3ccc(OCC4CC4)cc3)C2)cc1F (stereo not shown) [Example 7.2] |
| 199 | CC(=O)NC(C)c1ccc(OC2CCN(c3ccc(OCC4CC4)cc3)C2)c(F)c1 (stereo not shown) [Example 7.3] |
| 373 | C[C@H](NC(=O)C1CC1)c1ccc(O[C@@H]2CCN(c3ccc(OCC4CC4)cc3)C2)cc1 [Example 8.1, N—((S)-1-(4-((R)-1-(4-(Cyclopropylmethoxy)phenyl)pyrrolidin-3-yloxy)phenyl)-ethyl)-cyclopropanecarboxamide] |
| 365 | CC(=O)Nc1cc(C(=O)N[C@@H](C)c2ccc(OC3CCN(c4ccc(OCC5CC5)cc4)C3)cc2)on1 (stereo partly shown) [Example 8.2] |
| 61 | C[C@H](NC(=O)c1ccno1)c1ccc(O[C@@H]2CCN(c3ccc(OCC4CC4)cc3)C2)cc1 [Example 8.3] |
